The supplement of paper PMC10307832

Experiments:
Assay in all cases: relative viability (nuclei count vs DMSO), 5 days (fraction); higher = more cells survive
AZD5582 + Palbociclib = compound: C[C@@H](C(=O)N[C@@H](C1CCCCC1)C(=O)N2CCC[C@H]2C(=O)N[C@@H]3[C@@H](CC4=CC=CC=C34)OCC#CC#CCO[C@@H]5CC6=CC=CC=C6[C@@H]5NC(=O)[C@@H]7CCCN7C(=O)[C@H](C8CCCCC8)NC(=O)[C@H](C)NC)NC [AZD5582] + CC(=O)c1c(C)c2cnc(Nc3ccc(N4CCNCC4)cn3)nc2n(C2CCCC2)c1=O [Palbociclib] (partner 0.5 µM)
Procedure, shortened: (§1)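 Lung cancer cell lines in 1536-well plates were dosed by pin tool the day after seeding, either with one drug alone or with a fixed anchor-drug dose plus five library-drug doses (not always all listed) in √10 steps. After 5 days, cells were fixed and their nuclei stained in one step (final 0.05% Triton X-100, 1% formaldehyde, 1 ug/ml Hoechst), then counted on 4× images. Relative viability is the nuclei count in treated wells divided by that in vehicle wells. Values are medians of duplicate plates.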

[1] = compound: Cn1nnc2c(C(N)=O)ncn2c1=O [Temozolomide] + Nc1ncn([C@H]2C[C@H](O)[C@@H](CO)O2)c(=O)n1 [Decitabine] (partner 2 µM)
Procedure, shortened: as §1

[2] = compound: Cn1nnc2c(C(N)=O)ncn2c1=O [Temozolomide] + C[C@@H](Oc1cc(-c2cnn(C3CCNCC3)c2)cnc1N)c1c(Cl)ccc(F)c1Cl [Crizotinib] (partner 1 µM)
Procedure, shortened: as §1

AZD5582 + AZD7762 = compound: C[C@@H](C(=O)N[C@@H](C1CCCCC1)C(=O)N2CCC[C@H]2C(=O)N[C@@H]3[C@@H](CC4=CC=CC=C34)OCC#CC#CCO[C@@H]5CC6=CC=CC=C6[C@@H]5NC(=O)[C@@H]7CCCN7C(=O)[C@H](C8CCCCC8)NC(=O)[C@H](C)NC)NC [AZD5582] + NC(=O)Nc1cc(-c2cccc(F)c2)sc1C(=O)N[C@H]1CCCNC1 [AZD7762] (partner 0.2 µM)
Procedure, shortened: as §1

Row | Cell Line | relative viability (AZD5582 + Palbociclib; first compound 0.001581 µM) | relative viability (AZD5582 + Palbociclib; first compound 0.005 µM) | relative viability (AZD5582 + Palbociclib; first compound 0.01581 µM) | relative viability (AZD5582 + Palbociclib; first compound 0.05 µM) | relative viability ([1]; first compound 0.2 µM) | relative viability ([1]; first compound 0.6325 µM) | relative viability ([1]; first compound 2 µM) | relative viability ([1]; first compound 6.325 µM) | relative viability ([1]; first compound 20 µM) | relative viability ([2]; first compound 0.2 µM) | relative viability ([2]; first compound 0.6325 µM) | relative viability ([2]; first compound 2 µM) | relative viability ([2]; first compound 6.325 µM) | relative viability ([2]; first compound 20 µM) | relative viability (AZD5582 + AZD7762; first compound 0.001581 µM) | relative viability (AZD5582 + AZD7762; first compound 0.005 µM) | relative viability (AZD5582 + AZD7762; first compound 0.01581 µM) | relative viability (AZD5582 + AZD7762; first compound 0.05 µM)
1 | LXF-289 | 0.575 | 0.585 | 0.577 | 0.598 | 0.388 | 0.403 | 0.367 | 0.373 | 0.391 | 0.825 | 0.82 | 0.761 | 0.791 | 0.76 | 1.01 | 1.09 | 0.963 | 1.12
2 | HCC-366 | 0.347 | 0.319 | 0.322 | 0.43 | 0.297 | 0.386 | 0.384 | 0.304 | 0.337 | 0.519 | 0.604 | 0.402 | 0.622 | 0.447 | 0.132 | 0.285 | 0.33 | 0.41
3 | RERF-LC-KJ | 0.354 | 0.494 | 1.03 | 0.27 | 0.738 | 0.78 | 0.733 | 0.617 | 0.712 | 0.884 | 0.848 | 0.838 | 0.818 | 0.833 | 0.2 | 0.414 | 0.855 | 0.491
4 | HCC-44 | 0.906 | 0.931 | 1.02 | 0.928 | 1.04 | 0.991 | 0.963 | 0.951 | 0.966 | 0.786 | 0.796 | 0.791 | 0.831 | 0.826 | 0.9 | 1.01 | 1.05 | 1.03
5 | PC-3 [JPC-3] | 0.483 | 0.512 | 0.58 | 0.478 | 0.787 | 0.854 | 0.886 | 0.762 | 0.498 | 0.993 | 0.951 | 1.03 | 0.974 | 0.458 | 0.706 | 0.617 | 0.73 | 0.423
6 | NCI-H23 | 0.393 | 0.374 | 0.419 | 0.305 | 0.303 | 0.309 | 0.293 | 0.292 | 0.327 | 0.464 | 0.528 | 0.509 | 0.432 | 0.547 | 0.163 | 0.172 | 0.177 | 0.227
7 | LU99A | 0.455 | 0.465 | 0.412 | 0.534 | 0.88 | 0.833 | 0.917 | 0.848 | 0.776 | 0.592 | 0.601 | 0.6 | 0.557 | 0.515 | 0.317 | 0.349 | 0.313 | 0.337
8 | LCLC-97TM1 | 0.172 | 0.282 | 0.24 | 0.165 | 0.232 | 0.245 | 0.223 | 0.216 | 0.253 | 0.344 | 0.237 | 0.342 | 0.33 | 0.375 | 0.193 | 0.221 | 0.225 | 0.154
9 | LCLC-103H | 0.47 | 0.469 | 0.432 | 0.377 | 0.779 | 0.757 | 0.743 | 0.764 | 0.599 | 1.03 | 1.04 | 1.08 | 1.05 | 1.05 | 0.745 | 0.725 | 0.613 | 0.41
10 | HCC-78 | 0.435 | 0.474 | 0.474 | 0.432 | 0.743 | 0.679 | 0.763 | – | 0.614 | 0.293 | 0.331 | 0.382 | 0.361 | 0.248 | 0.691 | 0.601 | 0.468 | 0.417
11 | NCI-H358 | 0.124 | 0.156 | 0.14 | 0.136 | 0.19 | 0.224 | 0.223 | 0.228 | 0.207 | 0.785 | 0.62 | 0.686 | 0.552 | 0.559 | 0.471 | 0.586 | 0.697 | 0.506
12 | NCI-H838 | 0.214 | 0.257 | 0.191 | 0.213 | 0.493 | 0.495 | 0.462 | 0.439 | 0.475 | 0.876 | 0.888 | 0.894 | 0.808 | 0.869 | 0.87 | 0.903 | 0.81 | 1.01
13 | HCC-15 | 0.501 | 0.582 | 0.615 | 0.309 | 0.738 | 0.633 | 0.588 | 0.617 | 0.798 | 0.872 | 0.918 | 0.807 | 0.805 | 0.905 | 1.06 | 1.05 | 1.2 | 0.615
14 | EPLC-272H | 0.165 | – | 0.32 | 0.127 | 0.357 | 0.395 | 0.385 | 0.401 | 0.312 | 0.851 | 0.986 | 0.925 | 0.962 | 0.728 | 0.0994 | – | 0.204 | 0.0859
15 | HARA | 0.257 | 0.275 | 0.233 | 0.318 | 0.677 | 0.607 | 0.594 | 0.523 | 0.489 | 1.04 | 1.05 | 1.15 | 1.01 | 0.949 | 0.204 | 0.261 | 0.315 | 0.225
